Experiments:
HIV-1 T20S = assay type: cell-based; details: HIV-1 T20S, Table 5
Text: (§1) Illustrated in this example is the unexpected result of antiviral potency using the conjugates according to the present invention. […] In determining antiviral activity (e.g., one measure being the ability to inhibit transmission of HIV to a target cell) of the conjugates according to the present invention, used was an in vitro assay which has been shown, by data generated using synthetic peptides derived from either of the HR regions of HIV gp41, to be predictive of antiviral activity observed in vivo.
(§2) The infectivity assays score for reduction of infectious virus titer employing the indicator cell lines MAGI or the CCR5 expressing derivative cMAGI. Both cell lines exploit the ability of HIV-1 that to transactivate the expression of a β-galactosidase reporter gene driven by the HIV-LTR. The β-gal reporter has been modified to localize in the nucleus and can be detected with the X-gal substrate as intense nuclear staining within a few days of infection. The number of stained nuclei can thus be interpreted as equal to the number of infectious virions in the challenge inoculum if there is only one round of infection prior to staining. Infected cells are enumerated using a CCD-imager and both primary and laboratory adapted isolates show a linear relationship between virus input and the number of infected cells visualized by the imager. […] Peptides tested for antiviral activity were diluted into various concentrations, and tested in duplicate or triplicate against an HIV inoculum adjusted to yield approximately 1500-2000 infected cells/well of a 48 well microtiter plate. The peptide (in the respective dilution) was added to the CMAGI or MAGI cells, followed by the virus inocula; and 24 hours later, an inhibitor of infection and cell-cell fusion (e.g., T20) was added to prevent secondary rounds of HIV infection and cell-cell virus spread. The cells were cultured for 2 more days, and then fixed and stained with the X-gal substrate to detect HIV-infected cells. The number of infected cells for each control and peptide dilution was determined with the CCD-imager, and then the IC50 and IC90 were calculated (expressed in μg/ml).
In this first example of antiviral potency, two clinical isolates of HIV were obtained from the same HIV-infected individual. A first isolate, hereby designated “HIV-1 T20S” for ease of description, was sensitive to the antiviral effect of T20 (SEQ ID NO:4) both in vitro and in vivo. […] The results, with the IC50 expressed in ng/ml, are illustrated in Table 2.
(§3) Using the methods taught in Example 1 herein, additional conjugates were produced by varying the polymer, the terminus of the synthetic peptide which is operably bound to polymer, and the reactive functionality used for operably binding synthetic peptide to polymer. Two molecules of synthetic peptide (e.g. SEQ ID NO:4) were operably bound to polymer. Such conjugates were then tested for antiviral activity against HIV isolates IIIB, and HIV-1 T20S & HIV-1 T20R (see Table 2 for HIV resistant strains), with the antiviral activity (IC50) expressed in μg/ml. The results for the various conjugates (Table 5, A-Q), terminus of synthetic peptide used for operably binding polymer (Table 5, C-terminus denoted as “C”, N-terminus denoted as “N”) or if an internal lysine was used (Table 5, “Lys 18”, signifying lysine as amino acid residue 18 in the amino acid sequence of the synthetic peptide), antiviral activity (IC50) against HIV-1 strain IIIB (Table 5, “IIIB”), antiviral activity (IC50) against HIV-1 T20S (Table 5, “T20S”) and antiviral activity (IC50) against HIV-1 T20R (Table 5, “T20R”), are illustrated in Table 5.

HIV-1 T20R = assay type: cell-based; details: HIV-1 T20R, Table 5
Text: The infectivity assays score for reduction of infectious virus titer employing the indicator cell lines MAGI or the CCR5 expressing derivative cMAGI. Both cell lines exploit the ability of HIV-1 that to transactivate the expression of a β-galactosidase reporter gene driven by the HIV-LTR. The β-gal reporter has been modified to localize in the nucleus and can be detected with the X-gal substrate as intense nuclear staining within a few days of infection. The number of stained nuclei can thus be interpreted as equal to the number of infectious virions in the challenge inoculum if there is only one round of infection prior to staining. […] The peptide (in the respective dilution) was added to the CMAGI or MAGI cells, followed by the virus inocula; and 24 hours later, an inhibitor of infection and cell-cell fusion (e.g., T20) was added to prevent secondary rounds of HIV infection and cell-cell virus spread. The cells were cultured for 2 more days, and then fixed and stained with the X-gal substrate to detect HIV-infected cells. The number of infected cells for each control and peptide dilution was determined with the CCD-imager, and then the IC50 and IC90 were calculated (expressed in μg/ml).
In this first example of antiviral potency, two clinical isolates of HIV were obtained from the same HIV-infected individual.
Using the methods taught in Example 1 herein, additional conjugates were produced by varying the polymer, the terminus of the synthetic peptide which is operably bound to polymer, and the reactive functionality used for operably binding synthetic peptide to polymer. Two molecules of synthetic peptide (e.g. SEQ ID NO:4) were operably bound to polymer.

HIV-1 strain IIIB = assay: In vitro infectivity assay, HIV-1 strain IIIB (Table 5); assay type: cell-based
Text: as §1, §2, §3

HIV = details: Lawless et al., 1996; cited from earlier work

Substance	T20S (antiviral activity, IC50) (HIV-1 T20S)	T20R (antiviral activity, IC50) (HIV-1 T20R)	IIIB (antiviral activity, IC50) (HIV-1 strain IIIB)	50% effective concentration values (EC50), blocked infection of T cells (HIV) [µg/mL]
Conjugate A: two molecules of SEQ ID NO:4 bound via N-terminus to PEG 6	.029 µg/mL	.050 µg/mL	.037 µg/mL	–
Conjugate B: two molecules of SEQ ID NO:4 bound via C-terminus to PEG 6	.053 µg/mL	.070 µg/mL	.117 µg/mL	–
Conjugate C: two molecules of SEQ ID NO:4 bound via C-terminus to PEG 6	.046 µg/mL	.050 µg/mL	.065 µg/mL	–
Conjugate D: two molecules of SEQ ID NO:4 bound via N-terminus to alkyl C5	.036 µg/mL	.049 µg/mL	.039 µg/mL	–
Conjugate E: two molecules of SEQ ID NO:4 bound via N-terminus to PEG 8	.026 µg/mL	.020 µg/mL	.018 µg/mL	–
Conjugate F: two molecules of SEQ ID NO:4 bound via N-terminus to alkyl C8	.049 µg/mL	.087 µg/mL	.089 µg/mL	–
Conjugate G: two molecules of SEQ ID NO:4 bound via N-terminus to alkyl C11	.176 µg/mL	.218 µg/mL	.174 µg/mL	–
Conjugate H: SEQ ID NO:4 bound via N-terminus to AT, a triacid (e.g., trisuccinimidylamino triacetate)	.047 µg/mL	.124 µg/mL	.046 µg/mL	–
Conjugate I: two molecules of SEQ ID NO:4 bound via N-terminus to PEG 4-6-4	.012 µg/mL	.029 µg/mL	.029 µg/mL	–
Conjugate J: two molecules of SEQ ID NO:4 bound via N-terminus to PEG 3	.028 µg/mL	.049 µg/mL	.036 µg/mL	–
Conjugate K: two molecules of SEQ ID NO:4 bound via N-terminus to PEG 4	.026 µg/mL	.067 µg/mL	.033 µg/mL	–
Conjugate L: two molecules of SEQ ID NO:4 bound via C-terminus to GLY-PEG 3 (glycine linker)	.061 µg/mL	–	–	–
Conjugate M: two molecules of SEQ ID NO:4 bound via C-terminus to GLY-C2 (glycine linker)	.085 µg/mL	–	–	–
Conjugate N: two molecules of SEQ ID NO:4 bound via N-terminus to PEG 10	.017 µg/mL	.023 µg/mL	.039 µg/mL	–
Conjugate O: two molecules of SEQ ID NO:4 bound via C-terminus to GLY-C6 (glycine linker)	.083 µg/mL	–	–	–
Conjugate P: two molecules of SEQ ID NO:4 bound via C-terminus to GLY-PEG 6 (glycine linker)	.031 µg/mL	–	–	–
Conjugate Q: two molecules of SEQ ID NO:4 bound via internal lysine (Lys18) to PEG 6	.055 µg/mL	.120 µg/mL	.057 µg/mL	–
LTWQEWDREINNYTSLIYSLIEESQNQQEENEQELL [synthetic peptide alone]	.010 µg/mL	1.2 µg/mL	.007 µg/mL	–
NNLLRAIEAQQHLLQLTVWGIKQLQARILAVERYLKDQ [DP107]	–	–	–	1
